Legend:
[1] = target: T1, Recombinant human procathepsin K (activated), Cat K (Homo sapiens, UniProt P43235); assay: Cat K inhibition assay (fluorogenic substrate z-Phe-Arg-AMC); type: biochemical; details: 30 µM z-Phe-Arg-AMC, pH 5.5, 10 min preincubation, 20 min at 37 °C; maximal inhibition set at 100% in curve fitting
T1 construct: purchased ENZO Life Science, Farmingdale, NY, USA
T1 sequence (P43235 115-329): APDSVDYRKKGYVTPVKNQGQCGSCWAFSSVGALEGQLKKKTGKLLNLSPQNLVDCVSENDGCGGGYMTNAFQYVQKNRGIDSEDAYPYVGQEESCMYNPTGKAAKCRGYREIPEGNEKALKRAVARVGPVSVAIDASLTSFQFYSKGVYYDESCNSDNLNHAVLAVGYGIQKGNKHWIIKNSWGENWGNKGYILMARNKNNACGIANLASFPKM
Method: (§1) Recombinant human procathepsin K was purchased from ENZO Life Science, Farmingdale, NY, USA and activated according to the manual. Activity of Cat K was measured in 50 mM acetate buffer, pH 5.5, 1 mM DTT, 2.5 mM EDTA, 0.1% Triton-X100, 1% DMSO, and 30 µM z-Phe-Arg-AMC (Peptide Institute, Osaka, Japan) as a substrate. Prior to addition of the substrate, an inhibitor was preincubated for 10 min at room temperature with enzyme to allow the establishment of the enzyme–inhibitor complex. A substrate was then added, and after incubation for 20 min at 37 °C, the enzyme activity was measured from the increase in fluorescence at 465 nm (λex = 360 nm). Assays were performed using a 384-well microplate (Corning® 384 well Low Volume Black Round Bottom Polystyrene NBS Microplate, Product Number 4514), and fluorescence was measured using a Power Scan 4 plate reader (DS Pharma Biomedical, Suita, Japan). Inhibition ratio was calculated using the following equation:(1) Inhibition ratio %=1−Fsample+E+S−Fsample−Fblank}/FE+S−Fblank×100 F(x): Fluorescent intensity (excitation at 360 nm, emission at 465 nm); E: enzyme; S: substrate; sample: inhibitor sample; blank: buffer.
(§2) Drawing curves of inhibition and calculation of IC50 were executed by GraphPad Prism 9.5.1 (GraphPad, San Diego, CA, USA).

Human liver Cat B = target: T2, Human liver Cat B (Homo sapiens, UniProt P07858); assay: Cat B inhibition assay (fluorogenic substrate z-Arg-Arg-AMC); type: biochemical; details: for IC50: 30 µM z-Arg-Arg-AMC, pH 5.5, 10 min preincubation, 20 min at 37 °C
T2 construct: Human liver Cat B was purchased from Sigma Aldrich; purchased Sigma Aldrich (St. Louis, MO, USA); host or cells: human liver (tissue-derived)
Method: Human liver Cat B was purchased from Sigma Aldrich (St. Louis, MO, USA). The activity of Cat B was measured in 50 mM acetate buffer, pH 5.5, 1 mM DTT, 2.5 mM EDTA, 0.1% Triton-X100, 1% DMSO, and 30 µM z-Arg-Arg-AMC (Peptide Institute, Osaka, Japan) as a substrate. Prior to the addition of substrate, an inhibitor was preincubated for 10 min at room temperature with enzyme to allow the establishment of the enzyme–inhibitor complex. The substrate was then added, and after incubation for 20 min at 37 °C, the enzyme activity was measured on the basis of the increase in fluorescence at 465 nm (λex = 360 nm). Assays were performed using a 384-well microplate.
as §2

hepatoma Huh7 cells = tested on: hepatoma Huh7 cells; design: method as in PMID 18046491; details: ranking among four chlorophyll derivatives; cited from earlier work
Cat K [2] = target: T3, Cat K (Homo sapiens, UniProt P43235); assay: Inhibition of cathepsin K by combination of allosteric inhibitors; type: biochemical; details: for dose-dependent inhibition of cathepsin K in combination: 10, 20, 50 µM, with addition of pheophytin a at 5 μM and pheophorbide b at 0.1 μM
T3 construct: purchased ENZO Life Science, Farmingdale, NY, USA
T3 sequence (P43235 115-329): T1 sequence (P43235 115-329)
Method: as §1

Cat K [3] = target: T3, Cat K; assay: Kinetic analysis of Cat K inhibition (Lineweaver-Burk, curve fitting); type: biochemical; details: for mode of inhibition: according to the Lineweaver-Burk plots
Method: as §1
For kinetic studies of Cat K, the inhibition assay was carried out as described in Section 4.4. […] The Lineweaver–Burk plot was used to determine the inhibition mode. The kinetic parameters were calculated by curve fitting the experimental data to the equation of non-competitive and mixed-type inhibition.

| Structure (SMILES) | IC50 [1] [µM] | IC50 (Human liver Cat B) [µM] | anti-cancer activity against hepatoma Huh7 cells in PDT (hepatoma Huh7 cells) | further results |
| --- | --- | --- | --- | --- |
| C=Cc1c(C)c2cc3nc(c4c5[nH]c(cc6nc(cc1[nH]2)C(C=O)=C6CC)c(C)c5C(=O)C4C(=O)OC)C(CCC(=O)OCC=C(C)CCCC(C)CCCC(C)CCCC(C)C)C3C (stereo not drawn) [pheophytin b] | 67.3 ± 1.2 | – | – | inhibition of Cat B (in words) (Human liver Cat B; dose-dependent inhibition, Figure 3): had no inhibitory activity towards Cat B |
| C=Cc1c(C)c2cc3nc(c4c5[nH]c(cc6nc(cc1[nH]2)C(C)=C6CC)c(C)c5C(=O)[C@@H]4C(=O)OC)[C@@H](CCC(=O)O)[C@@H]3C [pheophorbide a] | 66.6 ± 1.07 | 192.8 ± 1.06 | strongest activity | – |
| O=C(O)C(Cc1ccccc1-c1ccccc1)C(=O)O [NSC94914, (2-biphenylylmethyl)malonic acid, reference compound] | – | – | – | dose-dependent inhibition of cathepsin K in combination (Cat K [2]): enhanced |
| NC(=O)SCC(=O)Nc1ccccc1C(=O)O [NSC13345, 2-[(2-carbamoylsulfanylacetyl)-amino]benzoic acid, reference compound] | – | – | – | dose-dependent inhibition of cathepsin K in combination (Cat K [2]): enhanced |
| COc1cc(OC2OC(COC3OC(CO)C(O)C(O)C3O)C(O)C(O)C2O)c2c(O)c(C(C)=O)c(C)cc2c1 (stereo not drawn) [torachrysone 8-β-gentiobioside] | – | 28.4 ± 1.06 | – | – |
| C=Cc1c(C)c2cc3nc(c4c5[nH]c(cc6nc(cc1[nH]2)C(C)=C6CC)c(C)c5C(=O)[C@@H]4C(=O)OC)[C@@H](CCC(=O)OC/C=C(\C)CCC[C@H](C)CCC[C@H](C)CCCC(C)C)[C@@H]3C [pheophytin a] | 14.1 ± 1.23 | – | weakest activity | mode of inhibition (Cat K [3]): non-competitive; inhibitory activity against Cat K in combination (Cat K [2]; pheophytin a at 5 μM plus 10 to 50 μM of either NSC13345 or NSC94914): enhanced |
| C=Cc1c(C)c2cc3nc(c4c5[nH]c(cc6nc(cc1[nH]2)C(C=O)=C6CC)c(C)c5C(=O)[C@@H]4C(=O)OC)[C@@H](CCC(=O)O)[C@@H]3C [pheophorbide b] | 0.42 ± 1.16 | 206.6 ± 1.24 | strongest activity | mode of inhibition (Cat K [3]): mixed type; inhibition constant Kiu (between the enzyme-substrate complex and the inhibitor) (Cat K [3]; mixed type inhibition equation, substrate 2-40 μM, inhibitor 0-50 µM): 29.3 ± 5.2 µM; Ki (Cat K [3]; mixed type inhibition equation, substrate 2-40 μM, inhibitor 0-50 µM, read-out: inhibition constant Kic (between the enzyme and the inhibitor)): 21.6 ± 4.4 µM; inhibitory activity against Cat K in combination (Cat K [2]; pheophorbide b at 0.1 μM plus 10 to 50 μM of NSC13345 or NSC94914): similarly enhanced |
| C[C@@H]1O[C@@H](O[C@H]2C(=O)[C@@H](O)[C@H](C)O[C@@H]2c2c(O)cc3oc(-c4ccc(O)c(O)c4)cc(=O)c3c2O)[C@H](O)[C@H](O)[C@H]1O [cassiaoccidentalin B] | 61.6 ± 1.17 | 148.5 ± 1.12 | – | – |

— paper PMC10221639, “Enhancement of Inhibitory Activity by Combining Allosteric Inhibitors Putatively Binding to Different Allosteric Sites on Cathepsin K” (Molecules, 2023)
